Measured values published in patent US4229584A, “Ureylenebis(anionic substituted phenylene carbonyl)imino naphthalene sulfonic acids and naphthalene carboxylic acids and their salts” (American Cyanamid Company, priority 1978, dated 1980).
Where a name gives a salt, the structure may show the parent alone. Read-outs that look alike come from different tables or passages of the source.

Legend:
human C1 = biological target: T1, human C1 (Homo sapiens, UniProt P09871); assay: Test, Code 026 (C1 inhibitor): protection of fluid phase human C2 from activated human C1; type: biochemical; conditions: activity in wells, twofold serial dilution; higher well number indicates higher activity
T1 construct: substrate fluid phase human C2, in presence of C4
T1 sequence (P09871 16-688): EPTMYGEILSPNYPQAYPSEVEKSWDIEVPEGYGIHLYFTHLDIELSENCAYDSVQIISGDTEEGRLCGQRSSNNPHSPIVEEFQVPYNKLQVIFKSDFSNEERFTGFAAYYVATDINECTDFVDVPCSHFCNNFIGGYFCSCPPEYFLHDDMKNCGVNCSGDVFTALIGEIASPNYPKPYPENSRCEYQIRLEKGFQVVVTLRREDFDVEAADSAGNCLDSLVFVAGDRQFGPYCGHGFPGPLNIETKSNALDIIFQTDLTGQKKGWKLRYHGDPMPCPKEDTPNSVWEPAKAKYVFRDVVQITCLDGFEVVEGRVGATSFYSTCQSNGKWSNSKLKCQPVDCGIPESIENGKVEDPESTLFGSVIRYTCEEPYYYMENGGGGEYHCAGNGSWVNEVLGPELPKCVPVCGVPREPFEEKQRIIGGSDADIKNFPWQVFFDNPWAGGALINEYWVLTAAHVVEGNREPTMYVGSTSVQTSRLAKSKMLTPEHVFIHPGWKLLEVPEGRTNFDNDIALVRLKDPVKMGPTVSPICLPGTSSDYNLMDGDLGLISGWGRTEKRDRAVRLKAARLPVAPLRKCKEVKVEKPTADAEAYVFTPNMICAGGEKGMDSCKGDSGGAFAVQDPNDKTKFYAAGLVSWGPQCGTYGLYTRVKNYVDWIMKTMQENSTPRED
T1 sequence (P00736 18-705 partner): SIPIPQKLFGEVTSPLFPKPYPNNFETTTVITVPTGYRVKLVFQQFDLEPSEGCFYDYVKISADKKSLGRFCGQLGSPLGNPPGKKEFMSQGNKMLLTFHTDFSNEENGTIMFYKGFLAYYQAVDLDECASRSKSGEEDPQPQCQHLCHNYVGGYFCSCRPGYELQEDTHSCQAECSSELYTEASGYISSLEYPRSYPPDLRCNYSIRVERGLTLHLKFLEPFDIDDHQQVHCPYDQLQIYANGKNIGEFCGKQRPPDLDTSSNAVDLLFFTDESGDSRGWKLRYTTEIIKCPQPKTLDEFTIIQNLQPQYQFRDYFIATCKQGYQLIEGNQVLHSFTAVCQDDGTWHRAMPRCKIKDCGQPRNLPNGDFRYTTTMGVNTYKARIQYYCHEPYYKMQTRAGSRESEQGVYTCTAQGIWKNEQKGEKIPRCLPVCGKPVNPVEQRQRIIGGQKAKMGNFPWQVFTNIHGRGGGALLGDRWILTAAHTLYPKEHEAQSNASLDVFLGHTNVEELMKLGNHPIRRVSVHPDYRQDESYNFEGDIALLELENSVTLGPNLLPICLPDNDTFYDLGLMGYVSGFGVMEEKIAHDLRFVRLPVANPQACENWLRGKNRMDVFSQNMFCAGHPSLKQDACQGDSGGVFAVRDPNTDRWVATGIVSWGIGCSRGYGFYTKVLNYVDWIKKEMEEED
T1 sequence (P02745 23-245 partner): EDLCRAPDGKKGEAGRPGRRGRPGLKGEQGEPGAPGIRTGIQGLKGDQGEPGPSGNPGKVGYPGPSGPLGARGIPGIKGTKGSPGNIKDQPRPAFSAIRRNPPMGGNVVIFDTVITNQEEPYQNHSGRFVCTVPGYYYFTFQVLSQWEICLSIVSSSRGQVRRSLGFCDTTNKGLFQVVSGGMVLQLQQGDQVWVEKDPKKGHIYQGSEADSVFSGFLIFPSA
T1 sequence (P02746 28-253 partner): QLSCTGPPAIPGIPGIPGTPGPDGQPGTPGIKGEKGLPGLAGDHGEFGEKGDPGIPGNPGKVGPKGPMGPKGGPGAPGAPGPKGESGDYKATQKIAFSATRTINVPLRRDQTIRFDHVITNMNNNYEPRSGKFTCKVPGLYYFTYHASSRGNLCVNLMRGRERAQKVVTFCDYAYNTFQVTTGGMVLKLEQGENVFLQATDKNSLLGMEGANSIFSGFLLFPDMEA
T1 sequence (P02747 29-245 partner): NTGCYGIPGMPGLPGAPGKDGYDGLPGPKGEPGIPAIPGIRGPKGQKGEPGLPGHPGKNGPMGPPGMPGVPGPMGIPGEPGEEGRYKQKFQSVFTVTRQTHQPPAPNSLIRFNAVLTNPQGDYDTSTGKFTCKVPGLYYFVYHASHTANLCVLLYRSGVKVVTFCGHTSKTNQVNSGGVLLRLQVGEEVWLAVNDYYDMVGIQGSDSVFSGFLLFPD
Source text: (§1) An active inhibitor protects C2 from C1 and C4; (ii) Test, Code 035 (C3-C9 inhibitor)--This test determines the ability of the late components of human complement (C3-C9) to lyse EAC 142 in the presence of appropriate dilutions of the test compound. An active inhibitor protects EAC 142 from lysis by human C3-C9; (iii) Test, Code 036 (C-Shunt inhibitor)--In this test human erythrocytes rendered fragile are lysed in autologous serum via the shunt pathway activated by cobra venom factor in the presence of appropriate dilutions of the test compound. Inhibition of the shunt pathway results in failure of lysis; (iv) Forssman Vasculitis Test--Here, the well known complement dependent lesion, Forssman vasculitis, is produced in guinea pigs by intradermal injection of rabbit anti-Forssman antiserum. The lesion is measured in terms of diameter, edema and hemorrhage and the extent to which a combined index of these is inhibited by prior intraperitoneal injection of the test compound at 200 mg/kg is then reported, unless otherwise stated; (v) Forssman Shock Test--Lethal shock is produced in guinea pigs by an i.v. injection of anti-Forssman antiserum and the harmonic mean death time of treated guinea pigs is compared with that of simultaneous controls; (vi) Complement Level Reduction Test--In this test, the above dosed guinea pigs, or others, are bled for serum and the complement level is determined in undiluted serum by the capillary tube method of U.S. Pat. No. 3,876,376 and compared to undosed control guinea pigs; and (vii) Cap 50 Test--Here, appropriate amounts of the test compound are added to a pool of guinea pig serum in vitro, after which the undiluted serum capillary tube assay referred to above is run. The concentration of compound inhibiting 50% is reported.
(§2) **Activity in wells, a serial dilution assay. Higher well number indicate
(§3) higher activity. The serial dilutions are twofold.

whole complement = assay: In vivo complement inhibition in guinea pigs (whole complement of serum, capillary tube assay); set-up: species or system guinea pig; conditions: for change in vivo at 200 mg/kg: Cavia porcellus, ip
Source text: as §1
With reference to Table I, guinea pigs weighing about 300 g were dosed intravenously (i.v.) or intraperitoneally (i.p.) with 200 mg/kg of the test compound dissolved in saline and adjusted to pH 7-8. […] The serum was tested for whole complement using the capillary tube assay. Percent inhibition was calculated by comparison with simultaneous controls. The results appear in Table I together with results of tests, Code 026, 035, 036, Cap 50, percent inhibition and Forssman shock.

shunt pathway = assay: Test, Code 036 (C-Shunt inhibitor): lysis of human erythrocytes in autologous serum via shunt pathway activated by cobra venom factor; type: cell-based; conditions: activity in wells, twofold serial dilution; higher well number indicates higher activity
Source text: as §1, §2, §3

[1] = system: late components of human complement (C3-C9); assay: Test, Code 035 (C3-C9 inhibitor): lysis of EAC 142 by late components of human complement; type: cell-based; conditions: activity in wells, twofold serial dilution; higher well number indicates higher activity
Source text: as §1, §2, §3

[2] = 2 h, intraperitoneal, 200 mg/kg, 120 mins., read-out: In Vivo Activity (Guinea Pig) % Inhibition Intraperitoneal 120 mins.
[3] = 0.5 h, read-out: In Vivo Activity (Guinea Pig) % Inhibition Intraperitoneal 30 mins.
[4] = 1 h, read-out: In Vivo Activity (Guinea Pig) % Inhibition Intraperitoneal 60 mins.
[5] = 2 h, read-out: In Vivo Activity (Guinea Pig) % Inhibition Intraperitoneal 120 mins.
[6] = 0.5 h, intraperitoneal, 200 mg/kg, 30 mins., read-out: In Vivo Activity (Guinea Pig) % Inhibition Intraperitoneal 30 mins.
[7] = 1 h, intraperitoneal, 200 mg/kg, 60 mins., read-out: In Vivo Activity (Guinea Pig) % Inhibition Intraperitoneal 60 mins.

Compound	C1 026* Wells (human C1)	change in vivo at 200 mg/kg (whole complement; [2])	Shunt Inhibition 036* Wells (shunt pathway)	C-Late 035* Wells [1]	change in vivo at 200 mg/kg (whole complement; [3])	change in vivo at 200 mg/kg (whole complement; [4])	change in vivo at 200 mg/kg (whole complement; [5])	change in vivo at 200 mg/kg (whole complement; [6])	change in vivo at 200 mg/kg (whole complement; [7])	In Vivo Activity (Guinea Pig) % Inhibition Intravenous 2 mins. (whole complement; 200 mg/kg)	In Vivo Activity (Guinea Pig) % Inhibition Intravenous 30 mins. (whole complement; 200 mg/kg, 30 mins.)	In Vivo Activity (Guinea Pig) % Inhibition Intravenous 120 mins. (whole complement; 200 mg/kg, 120 mins.)
O=C(Nc1cc(C(=O)O)cc(C(=O)Nc2cc(S(=O)(=O)O)cc3cc(S(=O)(=O)O)cc(O)c23)c1)Nc1cc(C(=O)O)cc(C(=O)Nc2cc(S(=O)(=O)O)cc3cc(S(=O)(=O)O)cc(O)c23)c1 [3,3'-(Carbonyldiimino)bis[5-[(8-hydroxy-3,6-disulfo-1-naphthalenyl)aminocarbonyl]]benzoic acid tetrasodium salt]	+6 Wells	-69%	–	–	–	–	–	–	–	–	–	–
O=C(Nc1cc(C(=O)O)cc(C(=O)Nc2ccc(S(=O)(=O)O)c3cc(S(=O)(=O)O)cc(O)c23)c1)Nc1cc(C(=O)O)cc(C(=O)Nc2ccc(S(=O)(=O)O)c3cc(S(=O)(=O)O)cc(O)c23)c1 [3,3'-Ureylenebis{5-[(8-hydroxy-4,6-disulfo-1-naphthenyl)aminocarbonyl]-benzoic acid}tetrasodium salt]	+4 Wells	-94%	+2 Wells	–	–	–	–	–	–	–	–	–
O=C(Nc1ccc(C(=O)Nc2cc3ccccc3cc2C(=O)[O-])c(S(=O)(=O)[O-])c1)Nc1ccc(C(=O)Nc2cc3ccccc3cc2C(=O)[O-])c(S(=O)(=O)[O-])c1.[Na+].[Na+].[Na+].[Na+] [3,3'-{Ureylenebis[(2-sulfo-4,1-phenylene)carbonylimino]}di-2-naphthoic acid tetrasodium salt]	N	–	N	+3 Wells	–	–	–	–	–	–	–	–
O=C(Nc1ccc(C(=O)Nc2ccc(S(=O)(=O)[O-])c3cc(S(=O)(=O)[O-])cc(O)c23)c(S(=O)(=O)[O-])c1)Nc1ccc(C(=O)Nc2ccc(S(=O)(=O)[O-])c3cc(S(=O)(=O)[O-])cc(O)c23)c(S(=O)(=O)[O-])c1.[Na+].[Na+].[Na+].[Na+].[Na+].[Na+] [4,4'-Ureylenebis[(2-sulfo-4,1-phenylenecarbonyl)imino]bis[5-hydroxy-1,7-naphthalenedisulfonic acid] hexasodium salt]	+7 Wells	–	+5 Wells	N	1%	-3%	-24%	–	–	–	–	–
O=C(Nc1ccc(C(=O)Nc2ccc(S(=O)(=O)[O-])c3cccc(S(=O)(=O)O)c23)c(S(=O)(=O)[O-])c1)Nc1ccc(C(=O)Nc2ccc(S(=O)(=O)O)c3cccc(S(=O)(=O)O)c23)c(S(=O)(=O)[O-])c1.[Na+].[Na+].[Na+] [4,4'-{Ureylenebis[(2-sulfo-4,1-phenylenecarbonyl)imino]}-di-1,5-naphthalenedisulfonic acid trisodium salt]	+7 Wells	–	+1 Wells	N	-10%	6%	-6%	–	–	–	–	–
O=C(Nc1ccc(C(=O)Nc2cc(S(=O)(=O)[O-])cc3cc(S(=O)(=O)[O-])ccc23)c(S(=O)(=O)[O-])c1)Nc1ccc(C(=O)Nc2cc(S(=O)(=O)[O-])cc3cc(S(=O)(=O)[O-])ccc23)c(S(=O)(=O)[O-])c1.[Na+].[Na+].[Na+].[Na+].[Na+].[Na+] [4,4'-{Ureylenebis[(2-sulfo-4,1-phenylenecarbonyl)imino]}-di-2,7-naphthalenedisulfonic acid hexasodium salt]	–	–	N	–	–	–	–	–	–	–	–	–
O=C(Nc1ccc(C(=O)Nc2cc(S(=O)(=O)O)cc3cc(S(=O)(=O)O)cc(O)c23)c(S(=O)(=O)O)c1)Nc1ccc(C(=O)Nc2cc(S(=O)(=O)O)cc3cc(S(=O)(=O)O)cc(O)c23)c(S(=O)(=O)O)c1 [4,4'-{Ureylenebis[(2-sulfo-4,1-phenylenecarbonyl)imino]}bis-[5-hydroxy-2,7-naphthalenedisulfonic acid]hexasodium salt]	–	-74%	–	–	–	–	–	-35%	-41%	-98%	-81%	-63%
Cc1ccc(NC(=O)Nc2ccc(C)c(C(=O)Nc3ccc(S(=O)(=O)[O-])c4cc(S(=O)(=O)[O-])cc(O)c34)c2)cc1C(=O)Nc1ccc(S(=O)(=O)[O-])c2cc(S(=O)(=O)[O-])cc(O)c12.[Na+].[Na+].[Na+].[Na+] [4,4'-{Ureylenebis[(6-methyl-3,1-phenylenecarbonyl)imino]}-bis[5-hydroxy-1,7-naphthalenedisulfonic acid], tetrasodium salt]	–	–	+2 Wells	–	–	–	–	–	–	–	–	–
O=C(Nc1ccc(C(=O)Nc2cccc3cc(S(=O)(=O)O)cc(O)c23)c(S(=O)(=O)O)c1)Nc1ccc(C(=O)Nc2cccc3cc(S(=O)(=O)O)cc(O)c23)c(S(=O)(=O)O)c1 [5,5'-{Ureylenebis[(2-sulfo-4,1-phenylenecarbonyl)imino]}-bis[4-hydroxy-2-naphthalenesulfonic acid]tetrasodium salt]	+2 Wells	-58%	–	–	–	–	–	-26%	0%	–	–	–
O=C(Nc1ccc(S(=O)(=O)[O-])c(C(=O)Nc2cc(S(=O)(=O)[O-])cc3cc(S(=O)(=O)[O-])cc(S(=O)(=O)[O-])c23)c1)Nc1ccc(S(=O)(=O)[O-])c(C(=O)Nc2cc(S(=O)(=O)[O-])cc3cc(S(=O)(=O)[O-])cc(S(=O)(=O)[O-])c23)c1.[Na+].[Na+].[Na+].[Na+].[Na+].[Na+].[Na+].[Na+] [8,8'-[Carbonylbis[imino[(-6-sulfo-3,1-phenylene)]carbonylimino]]-bis-1,3,6-naphthalenetrisulfonic acid octasodium salt]	+7 Wells	–	+1 Wells	–	-23%	-58%	-71%	–	–	–	–	–
O=C(Nc1ccc(C(=O)Nc2cc(S(=O)(=O)[O-])cc3cc(S(=O)(=O)[O-])cc(S(=O)(=O)[O-])c23)cc1)Nc1ccc(C(=O)Nc2cc(S(=O)(=O)[O-])cc3cc(S(=O)(=O)[O-])cc(S(=O)(=O)[O-])c23)cc1.[Na+].[Na+].[Na+].[Na+].[Na+].[Na+] [8,8'-[Ureylenebis(4,1-phenylenecarbonylimino)]di-1,3,6-naphthalenetrisulfonic acid hexasodium salt]	+4 Wells	–	–	–	-18%	-21%	-33%	–	–	-71%	-28%	-16%
O=C(Nc1ccc(C(=O)Nc2ccc(S(=O)(=O)[O-])c3cc(S(=O)(=O)[O-])cc(S(=O)(=O)[O-])c23)c(S(=O)(=O)[O-])c1)Nc1ccc(C(=O)Nc2ccc(S(=O)(=O)[O-])c3cc(S(=O)(=O)[O-])cc(S(=O)(=O)[O-])c23)c(S(=O)(=O)[O-])c1.[Na+].[Na+].[Na+].[Na+].[Na+].[Na+].[Na+].[Na+] [8,8'-{Ureylenebis[(2-sulfo-4,1-phenylenecarbonyl)imino]}di-1,3,5-naphthalenetrisulfonic acid octasodium salt]	–	–	–	+1 Wells	-32%	-31%	-51%	–	–	-89%	-45%	-29%
O=C(Nc1ccc(C(=O)Nc2cc(S(=O)(=O)O)cc3cc(S(=O)(=O)O)cc(S(=O)(=O)O)c23)c(S(=O)(=O)O)c1)Nc1ccc(C(=O)Nc2cc(S(=O)(=O)O)cc3cc(S(=O)(=O)O)cc(S(=O)(=O)O)c23)c(S(=O)(=O)O)c1 [8,8'-{Ureylenebis{[(2-sulfo-4,1-phenylene)carbonyl]imino}}-1,3,6-naphthalenetrisulfonic acid octasodium salt]	–	-8%	–	–	–	–	–	4%	17%	-85%	-53%	-24%
